Measurements as given in patent US5468756A, “Imidazonaphthyridine derivatives” (Kyowa Hakko Kogyo Co., Ltd., priority 1990, dated 1995).

Key:
[1] = tested on: platelet activating factor (PAF)-induced mortality; assay: Inhibition effect on platelet activating factor (PAF)-induced mortality; type: in vivo, male dd mice; conditions: Mus musculus, po, PAF 40 μg/kg i.v., 3 h, n = 10, control group survival 0-20%, read-out: Survival rate of test compound-administered group
Summary of the method: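 Male dd mice (28–32 g, 10 per group) dosed orally with 50 or 100 mg/kg compound or saline. PAF at 40 μg/kg given intravenously 1 h later; mortality recorded 3 h after PAF injection.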

[2] = tested on: passive Schultz-Dale reaction; assay: Effect on passive Schultz-Dale reaction (broncho-dilative activity), sensitized tracheal strips contracted by antigen; design: species or system male Hartley guinea pigs; conditions: guinea pig tracheal zig-zag strips, 37° C., antigen egg white albumin 1 μg/ml; read-out: Passive Schultz-Dale reaction IC50 (concentration of 50% relaxation rate)
Summary of the method: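 Male Hartley guinea pigs were passively sensitized i.p. with rabbit anti-OA serum, and tracheal zig-zag strips were taken 24 h later. Compounds were added cumulatively at the plateau, and IC50 (50% relaxation) was taken from the regression line of the concentration-relaxation curves.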

[3] = tested on: carrageenin-induced paw edema; assay: Effect on carrageenin-induced paw edema; type: in vivo, male Wistar rats; conditions: Rattus norvegicus, 3 hours after carrageenin, read-out: Suppression rate for paw swelling, carrageenin-induced edema; for inhibition in vivo at 100 mg/kg: p.o.; for inhibition in vivo at 50 mg/kg: po, 50 mg/kg P.O.
Summary of the method: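 Male Wistar rats (150-160 g, n=3-5) dosed orally at 25, 50 or 100 mg/kg, one hour before 0.1 ml 1% carrageenin injected subcutaneously into the right hind footpad. Paw volume by plethysmograph before and 3 h after; suppression of swelling rate relative to saline controls.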

[4] = tested on: Type III allergic reaction-induced pleurisy; assay: Effect on Type III allergic reaction-induced pleurisy; type: in vivo, male Wistar rats; conditions: 100 mg/kg orally; rats; 4.5 h after induction of pleurisy
Description: c) Effect on Type III allergic reaction-induced pleurisy
1. Preparation of IgG fraction of rabbit anti-egg white albumin (anti-OA)
IgG was purified from rabbit anti-OA serum prepared in advance by the method of Koda et al. [Folia Pharmacol., Japon 66, 237, (1970)] in the following manner.
A saturated solution of ammonium sulfate (half volume of the serum) was added to the anti-OA serum, and the mixture was left for one hour at 4° C. The precipitate was taken by centrifugation (3,000 rpm, 30 min. 4° C.) and dissolved in phosphate buffer of Dulbecco. Then, ammonium sulfate fractionation was carried out three times in the same manner as above, whereby a purified IgG fraction was obtained.
2. Type III allergic reaction-induced pleurisy
Male Wistar rats weighing 225-250 g were pre-bred for several days and fasted overnight prior to the experiment. The test compound (100 mg/kg) was orally administered to the animals, and after 30 minutes, a solution of IgC of rabbit anti-OA (0.2 ml, 5 mg protein/ml) was injected into the pleural cavity of the animals from the right side of thorax under anesthesia with ether. Thirty minutes after the injection of IgG, OA (albumin egg grade III; Sigma Chemical Co.) was intravenously injected into the animals as an inducer of pleurisy. After two hours, Evans Blue (25 mg/kg) was intravenously injected, and four and a half hours after the induction of pleurisy, the animals were killed by bleeding.
Then, an exudate in the pleural cavity was obtained, and the volume of the exudate was measured. The pleural cavity was rinsed with 5 ml of physiological saline and the rinsings were added to the exudate. The number of infiltrated cells in the mixture was counted and the volume of the dye in the mixture was determined by the absorption at 625 nm [Agent Actions., 25, 326 (1988)]. The suppression rates for the volume of the exudate, the number of infiltrated cells and the volume of the dye in the pleural cavity were calculated by the following equation 3. [formula] […]

[5] = tested on: zymosan-induced paw edema; assay: Effect on zymosan-induced paw edema; type: in vivo, male Wistar rats; conditions: Rattus norvegicus, po, read-out: Suppression rate for paw swelling, zymosan-induced edema; for inhibition in vivo at 25 mg/kg: 25 mg/kg P.O.
Description: Male Wistar rats weighing 150 to 160 g (n=3-5) were used in the experiment. After the right hind paw volume was measured with the plethysmograph (TK-101; Unicom Co., Ltd.), the test compound (25, 50 or 100 mg/kg) was orally administered. After one hour, 0.1 ml of 1% carrageenin (λ-carrageenin; PICNIN-A®, Zushi Kagaku Co., Ltd.) was subcutaneously injected into the right hind paw footpad. Three hours after the injection of carrageenin, the right hind paw volume was measured and the swelling rate was determined by the following equation 1. [formula] Vt: the right hind paw volume measured 3 hours after the injection of carrageenin
Vo: the right hind paw volume measured prior to the injection of carrageenin
The suppression rate was calculated by the following equation 2. [formula] Swt: the swelling rate of the group administered with the test compound Swc: the swelling rate of the control group administered with physiological saline solution
b) Effect on zymosan-induced paw edema
The experiment was carried out in the same manner as in the carrageenin-induced paw edema test except that 1% zymosan (Zymosan A®; Sigma Chemical Co.) was used in place of 1% carrageenin and the right hind paw volume was measured […] the injection of the edema-inducing substance instead of 3 hours. The swelling rate and the suppression rate were calculated by equation 1 and equation 2, respectively.

ddY strain male mice = assay: Acute toxicity (Minimum Lethal Dose); type: in vivo
Description: The test compound was orally and intraperitoneally administered to ddY strain male mice weighing 20 to 25 g. MLD (Minimum Lethal Dose) was determined by observing the mortality for […] after the administration.

Question: `CCCCn1c(=O)c2ncn(C)c2c2cccnc21` [Compound 1, 5-(n-Butyl)-1-methyl-1H-imidazo[4,5-c][1,8]naphthyridin-4(5H)-one] was tested. Which responders at 100 mg/kg [1] did it give?
Answer: Its responders at 100 mg/kg is 90%.

Question: And the IC50 [2]?
Answer: The IC50 was 12000 nM.

Question: What about the inhibition in vivo at 100 mg/kg [3] of the same compound?
Answer: Its inhibition in vivo at 100 mg/kg is 40.1%.

Question: What about the “Suppression rate, number of infiltrated cells in the exudate” value [4] of the same compound?
Answer: The value was 84.1%.

Question: What about the “Suppression rate, volume of dye in the exudate” value [4] of the same compound?
Answer: The value was 80.3%.

Question: What about the “Suppression rate, volume of exudate” value [4] of the same compound?
Answer: Its value is 100%.

Question: And the inhibition in vivo at 100 mg/kg [5]?
Answer: Its inhibition in vivo at 100 mg/kg is 38.8%.

Question: What does the source list for `CCOCCn1cnc2c3cccnc3n(-c3ccccc3)c(=O)c21` [Compound 31, 3-(Ethoxyethyl)-5-phenyl-3H-imidazo[4,5-c][1,8]naphthyridin-4(5H)-one]?
Answer: responders at 100 mg/kg [1]: 90%; IC50 [2]: 130 nM; inhibition in vivo at 100 mg/kg [3]: 60.6%; MLD (Minimum Lethal Dose) i.p. (ddY strain male mice): > 100 mg/kg; MLD (Minimum Lethal Dose) p.o. (ddY strain male mice): > 300 mg/kg; inhibition in vivo at 25 mg/kg [5]: 57.4%

Question: Which results are given for `C=CCn1cnc2c3cccnc3n(-c3ccccc3)c(=O)c21` [Compound 33, 3-(2-propenyl)-5-phenyl-3H-imidazo[4,5-c][1,8]naphthyridin-4(5H)-one]?
Answer: responders at 100 mg/kg [1]: 100%; IC50 [2]: 7.1 nM; inhibition in vivo at 50 mg/kg [3]: 67.8%; MLD (Minimum Lethal Dose) i.p. (ddY strain male mice): > 100 mg/kg; MLD (Minimum Lethal Dose) p.o. (ddY strain male mice): > 300 mg/kg; inhibition in vivo at 25 mg/kg [5]: 67.3%

Question: `CC(=O)OCCn1cnc2c3cccnc3n(-c3ccccc3)c(=O)c21` [Compound 34, 3-(2-Acetoxyethyl)-5-phenyl-3H-imidazo[4,5-c][1,8]naphthyridin-4(5H)-one] was tested. Which responders at 100 mg/kg [1] did it give?
Answer: Its responders at 100 mg/kg is 70%.

Question: What about the IC50 [2] of the same compound?
Answer: Its IC50 is 680 nM.

Question: And the inhibition in vivo at 50 mg/kg [3]?
Answer: The inhibition in vivo at 50 mg/kg was 42.2%.

Question: What about the “MLD (Minimum Lethal Dose) i.p.” value (ddY strain male mice) of the same compound?
Answer: The value was greater than 100 mg/kg.

Question: What about the “MLD (Minimum Lethal Dose) p.o.” value (ddY strain male mice) of the same compound?
Answer: Its value is greater than 300 mg/kg.

Question: What about the inhibition in vivo at 25 mg/kg [5] of the same compound?
Answer: Its inhibition in vivo at 25 mg/kg is 41.6%.

Question: Which responders at 100 mg/kg [1] does the source give for `O=c1c2c(ncn2Cc2ccc(F)cc2)c2cccnc2n1-c1ccccc1` [Compound 44, 3-(4-Fluorophenyl)methyl-5-phenyl-3H-imidazo[4,5-c][1,8]naphthyridin-4(5H)-one] here?
Answer: Its responders at 100 mg/kg is 50%.

Question: And the IC50 [2]?
Answer: Its IC50 is 6600 nM.

Question: And the inhibition in vivo at 100 mg/kg [3]?
Answer: The inhibition in vivo at 100 mg/kg was 42.8%.

Question: And the “MLD (Minimum Lethal Dose) i.p.” value (ddY strain male mice)?
Answer: Its value is greater than 50 mg/kg.

Question: What about the “MLD (Minimum Lethal Dose) p.o.” value (ddY strain male mice) of the same compound?
Answer: Its value is greater than 300 mg/kg.

Question: And the inhibition in vivo at 25 mg/kg [5]?
Answer: Its inhibition in vivo at 25 mg/kg is 63.9%.
